From ChEMBL document CHEMBL1201862, “PubChem BioAssay data set” (2004)
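Briefly, cells in 96-well plates were exposed to five compound concentrations for 48 h, and endpoints were estimated by linear interpolation. The concentration for 50% growth inhibition is given as GI50.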 Activity calls are given as the source filed them. No stated cut-off is given here; in the data, active = GI50 up to about 1.1 µM and inactive = higher.

Columns and labels:
Test in all cases: growth of human tumour cells (NCI), 48 h
SF-539 = test system: SF-539
M14 = test system: M14
UACC-62 = test system: UACC-62
SK-MEL-2 = test system: SK-MEL-2
MDA-MB-435 = test system: MDA-MB-435
PC-3 = test system: PC-3
RXF 393 = test system: RXF 393
RPMI-8226 = test system: RPMI-8226
LXFL 529 = test system: LXFL 529
HCT-15 = test system: HCT-15
IGROV-1 = test system: IGROV-1
MDA-N = test system: MDA-N
DMS-273 = test system: DMS-273
MCF7 = test system: MCF7
EKVX = test system: EKVX
SNB-19 = test system: SNB-19
HOP-62 = test system: HOP-62
COLO 205 = test system: COLO 205
NCI-H522 = test system: NCI-H522
SNB-75 = test system: SNB-75
SF-268 = test system: SF-268
SW-620 = test system: SW-620
MOLT-4 = test system: MOLT-4
SK-OV-3 = test system: SK-OV-3
NCI-H23 = test system: NCI-H23
SK-MEL-5 = test system: SK-MEL-5
OVCAR-8 = test system: OVCAR-8
A498 = test system: A498
DLD-1 = test system: DLD-1
NCI/ADR-RES = test system: NCI/ADR-RES
SR = test system: SR
OVCAR-3 = test system: OVCAR-3
SK-MEL-28 = test system: SK-MEL-28
HOP-18 = test system: HOP-18
Malme-3M = test system: Malme-3M
SN12C = test system: SN12C
HT-29 = test system: HT-29
HCT-116 = test system: HCT-116
UACC-257 = test system: UACC-257
A549 = test system: A549
SNB-78 = test system: SNB-78
M19-MEL = test system: M19-MEL
XF498 = test system: XF498
CCRF-CEM = test system: CCRF-CEM
786-0 = test system: 786-0
HL-60 = test system: HL-60
UO-31 = test system: UO-31
NCI-H226 = test system: NCI-H226
KM-20L2 = test system: KM-20L2
HOP-92 = test system: HOP-92
U-251 = test system: U-251
NCI-H460 = test system: NCI-H460
MDA-MB-231 = test system: MDA-MB-231
K562 = test system: K562
HCC 2998 = test system: HCC 2998
Hs-578T = test system: Hs-578T
CAKI-1 = test system: CAKI-1
OVCAR-4 = test system: OVCAR-4
OVCAR-5 = test system: OVCAR-5
BT-549 = test system: BT-549
LOX IMVI = test system: LOX IMVI
TK-10 = test system: TK-10
DMS-114 = test system: DMS-114
T47D = test system: T47D
SF-295 = test system: SF-295
ACHN = test system: ACHN
DU-145 = test system: DU-145
KM12 = test system: KM12

COC(=O)/C(=C/c1ccc(OC)cc1)c1cc(OC)c(OC)c(OC)c1
GI50 (SF-539): 1550 nM (inactive) | GI50 (M14): 1060 nM (active) | GI50 (UACC-62): 631 nM (active) | GI50 (SK-MEL-2): 3180 nM (inactive) | GI50 (MDA-MB-435): 112 nM (active) | GI50 (PC-3): 693 nM (active) | GI50 (RXF 393): 1240 nM (inactive) | GI50 (RPMI-8226): 2520 nM (inactive) | GI50 (LXFL 529): 3730 nM (inactive) | GI50 (HCT-15): 646 nM | GI50 (IGROV-1): 2480 nM (inactive) | GI50 (MDA-N): 133 nM (active) | GI50 (DMS-273): 746 nM (active) | GI50 (MCF7): 604 nM (active) | GI50 (EKVX): 8690 nM (inactive) | GI50 (SNB-19): 3620 nM (inactive) | GI50 (HOP-62): 1530 nM (inactive) | GI50 (COLO 205): 1470 nM (inactive) | GI50 (NCI-H522): 614 nM (active) | GI50 (SNB-75): 1290 nM (inactive) | GI50 (SF-268): 6010 nM (inactive) | GI50 (SW-620): 643 nM (active) | GI50 (MOLT-4): 1440 nM (inactive) | GI50 (SK-OV-3): 1340 nM (inactive) | GI50 (NCI-H23): 2840 nM (inactive) | GI50 (SK-MEL-5): 569 nM (active) | GI50 (OVCAR-8): 4280 nM (inactive) | GI50 (A498): 7050 nM (inactive) | GI50 (DLD-1): 2610 nM (inactive) | GI50 (NCI/ADR-RES): 514 nM (active) | GI50 (SR): 379 nM (active) | GI50 (OVCAR-3): 527 nM (active) | GI50 (SK-MEL-28): 5890 nM (inactive) | GI50 (HOP-18): > 100000 nM (inactive) | GI50 (Malme-3M): 1200 nM (inactive) | GI50 (SN12C): 5080 nM (inactive) | GI50 (HT-29): 524 nM (active) | GI50 (HCT-116): 2160 nM (inactive) | GI50 (UACC-257): 7830 nM (inactive) | GI50 (A549): 2990 nM (inactive) | GI50 (SNB-78): 5020 nM (inactive) | GI50 (M19-MEL): 3460 nM (inactive) | GI50 (XF498): 4890 nM (inactive) | GI50 (CCRF-CEM): 1390 nM (inactive) | GI50 (786-0): 4120 nM (inactive) | GI50 (HL-60): 406 nM (active) | GI50 (UO-31): 5460 nM (inactive) | GI50 (NCI-H226): 6550 nM (inactive) | GI50 (KM-20L2): 1120 nM (inactive) | GI50 (HOP-92): 3980 nM (inactive) | GI50 (U-251): 2000 nM (inactive) | GI50 (NCI-H460): 5110 nM (inactive) | GI50 (MDA-MB-231): 3380 nM (inactive) | GI50 (K562): 366 nM (active) | GI50 (HCC 2998): 10700 nM (inactive) | GI50 (Hs-578T): 957 nM (active) | GI50 (CAKI-1): 1120 nM (inactive) | GI50 (OVCAR-4): 7430 nM (inactive) | GI50 (OVCAR-5): 14900 nM (inactive) | GI50 (BT-549): 34000 nM (inactive) | GI50 (LOX IMVI): 4420 nM (inactive) | GI50 (TK-10): 5620 nM (inactive) | GI50 (DMS-114): 2960 nM (inactive) | GI50 (T47D): 7130 nM (inactive) | GI50 (SF-295): 706 nM (active) | GI50 (ACHN): 9930 nM (inactive) | GI50 (DU-145): 1690 nM (inactive) | GI50 (KM12): 521 nM (active)
